In ChEMBL document CHEMBL3585336, “Synthesis and evaluation of quinazoline amino acid derivatives as mono amine oxidase (MAO) inhibitors” (Bioorg Med Chem, 2015):

Assays:
[1] = target: T1, Amine oxidase [flavin-containing] A (Bos taurus, UniProt P21398); experiment: Inhibition of bovine brain mitochondria MAO-A using serotonin substrate after 60 mins by fluorimetric method
T1 sequence (P21398 whole entry): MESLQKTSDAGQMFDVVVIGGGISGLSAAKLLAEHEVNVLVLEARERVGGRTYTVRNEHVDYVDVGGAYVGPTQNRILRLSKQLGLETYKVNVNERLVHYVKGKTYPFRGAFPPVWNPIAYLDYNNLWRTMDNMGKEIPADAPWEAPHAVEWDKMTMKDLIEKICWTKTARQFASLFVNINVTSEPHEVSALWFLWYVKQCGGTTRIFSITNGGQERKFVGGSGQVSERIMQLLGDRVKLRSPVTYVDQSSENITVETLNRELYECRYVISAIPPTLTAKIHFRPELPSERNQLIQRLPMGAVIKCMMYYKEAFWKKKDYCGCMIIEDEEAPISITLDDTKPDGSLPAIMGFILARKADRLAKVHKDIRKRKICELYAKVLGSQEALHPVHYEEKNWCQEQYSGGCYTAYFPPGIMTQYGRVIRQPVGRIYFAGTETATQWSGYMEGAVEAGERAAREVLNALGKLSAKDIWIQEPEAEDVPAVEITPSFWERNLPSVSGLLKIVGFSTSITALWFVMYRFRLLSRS

[2] = target: T2, Amine oxidase [flavin-containing] B (Bos taurus, UniProt P56560); experiment: Inhibition of bovine brain mitochondria MAO-B using benzylamine substrate after 60 mins by fluorimetric method
T2 sequence (P56560 whole entry): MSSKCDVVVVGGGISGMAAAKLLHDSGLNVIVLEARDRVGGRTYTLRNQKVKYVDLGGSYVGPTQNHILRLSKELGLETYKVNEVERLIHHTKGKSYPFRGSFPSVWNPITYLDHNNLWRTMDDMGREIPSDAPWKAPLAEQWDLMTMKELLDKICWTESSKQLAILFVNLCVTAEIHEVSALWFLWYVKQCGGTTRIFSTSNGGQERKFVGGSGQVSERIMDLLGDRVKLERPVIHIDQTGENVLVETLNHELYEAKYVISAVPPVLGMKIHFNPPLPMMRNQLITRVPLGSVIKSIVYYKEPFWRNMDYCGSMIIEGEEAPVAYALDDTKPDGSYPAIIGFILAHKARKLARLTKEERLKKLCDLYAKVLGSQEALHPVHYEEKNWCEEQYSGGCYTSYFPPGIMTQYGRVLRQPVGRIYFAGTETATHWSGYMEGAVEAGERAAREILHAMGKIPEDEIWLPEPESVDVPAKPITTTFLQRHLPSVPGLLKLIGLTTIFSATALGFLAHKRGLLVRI

Mus musculus [3] = experiment: Acute toxicity in mouse at 300 mg/kg, po after 24 hrs; assay type: organism-based; conditions: in vivo
Mus musculus [4] = experiment: Acute toxicity in mouse at 125 mg/kg, ip after 24 hrs; assay type: organism-based; conditions: in vivo

Row | Compound | IC50 [1] [µM] | IC50 [2] [µM] | Activity (Mus musculus [3]) | Activity (Mus musculus [4])
1 | COC(=O)CCN1C(=O)c2ccccc2NC1c1ccc(Cl)cc1 (stereo unspecified) | 0.098 | 720 | Non-toxic | Non-toxic
2 | COC(=O)CCCN1C(=O)c2ccccc2NC1c1ccccc1 (stereo unspecified) | 0.063 | 540 | Non-toxic | Non-toxic
3 | NNC(=O)CCN1C(=O)c2ccccc2NC1c1ccc(Cl)cc1 (stereo unspecified) | 0.051 | 420 | Non-toxic | Non-toxic
4 | NNC(=O)CN1C(=O)c2ccccc2NC1c1ccccc1 (stereo unspecified) | 0.038 | 310 | Non-toxic | Non-toxic
5 | NNC(=O)C(Cc1ccccc1)N1C(=O)c2ccccc2NC1c1ccco1 (stereo unspecified) | 0.028 | 220 | Non-toxic | Non-toxic
6 | NNC(=O)CN1C(=O)c2ccccc2NC1c1ccc(Cl)cc1 (stereo unspecified) | 0.048 | 940 | Non-toxic | Non-toxic
7 | NNC(=O)CN1C(=O)c2ccccc2NC1c1ccco1 (stereo unspecified) | 0.036 | 560 | Non-toxic | Non-toxic
8 | COC(=O)CCNC(=O)c1ccccc1N | 0.062 | 560 | Non-toxic | Non-toxic
9 | COC(=O)CCCCCNC(=O)c1ccccc1N | 0.056 | 440 | Non-toxic | Non-toxic
10 | COC(=O)CCCN1C(=O)c2ccccc2NC1c1ccco1 (stereo unspecified) | 0.096 | 780 | Non-toxic | Non-toxic
11 | NNC(=O)CCN1C(=O)c2ccccc2NC1c1ccccc1 (stereo unspecified) | 0.016 | 210 | Non-toxic | Non-toxic
12 | COC(=O)CCN1C(=O)c2ccccc2NC1c1ccccc1 (stereo unspecified) | 0.092 | 860 | Non-toxic | Non-toxic
13 | COC(=O)C(Cc1ccccc1)N1C(=O)c2ccccc2NC1c1ccc(Cl)cc1 (stereo unspecified) | 0.042 | 540 | Non-toxic | Non-toxic
14 | NNC(=O)CCCN1C(=O)c2ccccc2NC1c1ccco1 (stereo unspecified) | 0.036 | 270 | Non-toxic | Non-toxic
15 | NNC(=O)C(Cc1ccccc1)N1C(=O)c2ccccc2NC1c1ccc(Cl)cc1 (stereo unspecified) | 0.018 | 120 | Non-toxic | Non-toxic
16 | COC(=O)CCCN1C(=O)c2ccccc2NC1c1ccc2c(c1)OCO2 (stereo unspecified) | 0.088 | 660 | Non-toxic | Non-toxic
17 | COC(=O)C(C)N1C(=O)c2ccccc2NC1c1ccc2c(c1)OCO2 (stereo unspecified) | 0.0028 | 86 | Non-toxic | Non-toxic
18 | NNC(=O)CCN1C(=O)c2ccccc2NC1c1ccc2c(c1)OCO2 (stereo unspecified) | 0.032 | 380 | Non-toxic | Non-toxic
19 | COC(=O)CN1C(=O)c2ccccc2NC1c1ccco1 (stereo unspecified) | 0.044 | 380 | Non-toxic | Non-toxic
20 | COc1ccc(C2Nc3ccccc3C(=O)N2CC(=O)NN)cc1 (stereo unspecified) | 0.082 | 890 | Non-toxic | Non-toxic

Row | Compound | IC50 [1] [µM] | IC50 [2] [µM] | Activity (Mus musculus [3]) | Activity (Mus musculus [4])
21 | COC(=O)CCCCCN1C(=O)c2ccccc2NC1c1ccc2c(c1)OCO2 (stereo unspecified) | 0.084 | 820 | Non-toxic | Non-toxic
22 | COC(=O)CN1C(=O)c2ccccc2NC1c1ccc2c(c1)OCO2 (stereo unspecified) | 0.061 | 740 | Non-toxic | Non-toxic
23 | COC(=O)CNC(=O)c1ccccc1N | 0.052 | 850 | Non-toxic | Non-toxic
24 | COC(=O)CN1C(=O)c2ccccc2NC1c1ccc(OC)cc1 (stereo unspecified) | 0.048 | 560 | Non-toxic | Non-toxic
25 | CC(C(=O)NN)N1C(=O)c2ccccc2NC1c1ccco1 (stereo unspecified) | 0.032 | 310 | Non-toxic | Non-toxic
26 | COC(=O)CCN1C(=O)c2ccccc2NC1c1ccc2c(c1)OCO2 (stereo unspecified) | 0.084 | 170 | Non-toxic | Non-toxic
27 | NNC(=O)CN1C(=O)c2ccccc2NC1c1ccc2c(c1)OCO2 (stereo unspecified) | 0.0021 | 83 | Non-toxic | Non-toxic
28 | COC(=O)CN1C(=O)c2ccccc2NC1c1ccc(Cl)cc1 (stereo unspecified) | 0.0036 | 88 | Non-toxic | Non-toxic
29 | COC(=O)CCCCCN1C(=O)c2ccccc2NC1c1ccc(Cl)cc1 (stereo unspecified) | 0.044 | 290 | Non-toxic | Non-toxic
30 | COC(=O)[C@H](C)NC(=O)c1ccccc1N | 0.063 | 410 | Non-toxic | Non-toxic
31 | COC(=O)CCCCCNC(=O)c1ccccc1/N=C/c1ccccc1 | 0.064 | 540 | Non-toxic | Non-toxic
32 | COC(=O)C(C)N1C(=O)c2ccccc2NC1c1ccco1 (stereo unspecified) | 0.0082 | 61 | Non-toxic | Non-toxic
33 | NNC(=O)CCCN1C(=O)c2ccccc2NC1c1ccccc1 (stereo unspecified) | 0.047 | 370 | Non-toxic | Non-toxic
34 | COC(=O)C(C)N1C(=O)c2ccccc2NC1c1ccccc1 (stereo unspecified) | 0.039 | 460 | Non-toxic | Non-toxic
35 | COC(=O)CCCNC(=O)c1ccccc1N | 0.071 | 460 | Non-toxic | Non-toxic
36 | NNC(=O)CCCN1C(=O)c2ccccc2NC1c1ccc2c(c1)OCO2 (stereo unspecified) | 0.082 | 420 | Non-toxic | Non-toxic
37 | COC(=O)[C@H](Cc1ccccc1)NC(=O)c1ccccc1N | 0.038 | 680 | Non-toxic | Non-toxic
38 | COC(=O)CN1C(=O)c2ccccc2NC1c1ccccc1 (stereo unspecified) |  |  | Non-toxic | Non-toxic
39 | C#CCN(C)CCCOc1ccc(Cl)cc1Cl [CLORGILINE] |  |  | Non-toxic | Non-toxic
40 | COC(=O)C(Cc1ccccc1)N1C(=O)c2ccccc2NC1c1ccco1 (stereo unspecified) | 0.073 | 340 | Non-toxic | Non-toxic
